Test results reported in patent US20080027094A1, “Tropane Compounds and Pharmaceutical Compositions Comprising the Same as an Active Ingredient” (Ono Pharmaceutical Co., Ltd., priority 2004, published 2008).

Columns and labels:
[1] = tested on: metacholine-induced bladder constriction; assay: Effects on the bladder constriction in guinea pigs; format: in vivo; details: Hartley male guinea pigs, intratracheal application, metacholine 10 μg/kg i.v.; maximum dose suppressing less than 20% at all points within 60 min
Method: The present experiment was carried out with Hartley male guinea pigs (supplied by Nippon SLC Co.) as divided into groups each consisting of 3 to 4 animals. The guinea pigs were anesthetized with a urethane ([…], given subcutaneously), and were subjected individually to insertion of a catheter into the carotid vein in order to apply metacholine. […] All the ureters were ligated in order to prevent the urine from flowing into the bladder from the kidney. The internal pressure of the bladder was measured by means of a pressure transducer, whereby the bladder was filled with physiological saline to such an extent as might exert lower pressure than the urination threshold pressure against the inner wall. […] Prior to application of the test substance, and from 5 to 60 min. thereafter, respectively, metacholine was applied intravenously (10 μg/kg) to induce the bladder constriction, and the internal pressure of the bladder was measured in a time-course manner. The bladder-constriction ratio was taken as the proportion of the internal pressure of the bladder measured after application of the test substance to the internal pressure of the bladder before application of the test substance. […]

[2] = tested on: metacholine-induced airway-constriction; assay: Effect on the airways constriction in guinea pigs (Konzett-Rossler method); format: in vivo; details: Hartley male guinea pigs, intratracheal application, metacholine 10 μg/kg i.v.; minimum dose suppressing not less than 80% within 60 min
Method: The present experiment was carried out with Hartley male guinea pigs (supplied by Nippon SLC Co.) as divided into groups each consisting of 3 to 4 animals. The guinea pigs were anesthetized with pentobarbital sodium (60 mg/kg, given intraperitoneally), and were subjected individually to insertion of a cannula into the airways. Each airway cannula was connected with a volume-controlled respirator (Model SN-480-N, manufactured by Shinano Seisakusho Co.) to perform artificial respiration at a ventilation volume of 5 mL and at a ventilation rate of ca. 70/min. For the purpose of application of metacholine, a catheter was inserted into the carotid vein. […] Prior to application of the test substance, and from 5 to 60 min. thereafter, respectively, metacholine was applied intravenously (10 μg/kg) to induce the airway-constriction, and the pressure at which air was passed through the airways, or the air-passage pressure through the airways, was measured with use of the Konzett-Rossler method. The airways-constriction ratio was taken as a proportion, expressed in percentage, of the air-passage pressure through the airways measured after individual application of the test substance to the maximum air-passage pressure through the airways found when the airways were completely clogged and occluded. […]

Structure (SMILES)	no-effective dose for the bladder constriction [1]	effective dose for the airway-constriction suppression [2]
CCOC(=O)COc1cccc(C[N@+]2(C)[C@@H]3CC[C@H]2C[C@@H](OC(=O)C(O)(c2cccs2)c2cccs2)C3)c1.[Br-] [Example 14 (4), (1R,3r,5S,8s)-8-[3-(2-Ethoxy-2-oxoethoxy)benzyl]-3-({hydroxy[di(2-thienyl)]acetyl}oxy)-8-methyl-8-azoniabicyclo[3.2.1]octane bromide]	30 µg/kg	3 µg/kg
C[N+]1(C)[C@@H]2C[C@@H](OC(=O)C(O)(c3cccs3)c3cccs3)C[C@H]1[C@@H]1O[C@@H]12 [tiotropium]	1 µg/kg	10 µg/kg
